# Experimental data as given in patent publication US8772463B2, “Fluorescent dye-labeled glucose bioprobe, synthesis method and usage thereof” (SNU R&DB Foundation, priority 2007, dated 2014).
# Columns and labels:
# A549 cells [1] = assay: Cy3-Glc-α intracellular uptake efficiency, confocal laser scanning microscope (CLSM); assay type: cell-based, human; conditions: CLSM live-cell imaging
# Method: 1×10^4 cells were cultured on a Lab-Tek glass chamber slide (Nalge Nunc International, Naperville, Ind., USA) in 35 mm cell culture dish. After 24 h, the glass chamber slide was taken from culture dish and loaded on chamber. Then, the chamber was attached to the microscope. The temperature of the chamber was maintained at 37° C. After injection of 12.5 μM of Cy3-Glc-α in RPMI 1640 in the chamber, the fluorescent image was taken every 60 sec, digitized, and saved on a computer for later analysis.
# (1) To evaluate the applicability of the fluorescent glucose analogue (Cy3-Glc-α) of the present invention, finally obtained in Example 1, as a bioprobe, the intracellular uptake efficiency of Cy3-Glc-α was measured by using a confocal laser scanning microscope (CLSM).
# (2) In addition, the experiment was performed by using the confocal laser scanning microscope to measure the optimum incubation time required to achieve the maximum uptake of the analogue Cy3-Glc-α.
# A549 cells [2] = assay: Direct competition of Cy3-Glc-α uptake with D-glucose / L-glucose; assay type: cell-based, human; conditions: 37° C.
# Method: 1×10^4 cells were cultured on a Lab-Tek glass chamber slide (Nalge Nunc International, Naperville, Ind., USA) in 35 mm cell culture dish. After 24 h, the cells were treated for each experimental purpose. Then, the medium was replaced with RPMI 1640 medium containing 12.5 μM of Cy3-Glc-α. The cells were exposed to Cy3-Glc-α for 40 min, then washed with PBS 3 times. Finally, the glass chamber slide was taken from culture dish and loaded on the fluorescence microscope (Axiovert 200, Carl Zeiss, Germany). Fluorescence images of 35-50 cells were taken by CCD camera (Axiocam MRm, Germany) and fluorescence intensity of each cell was measured by Axiovision (program for data analysis). An area as ROIs (regions of interest) which contains a cell in phase-contrast image was drawn using Axiovision. Axiovision analyzed CCD camera images and provided the digitized mean of fluorescence intensity in the ROIs that the present inventors had established. The present inventors subtracted the background intensity from the fluorescence intensity to get the fluorescence intensity value that a cell contained. With the method described above, the present inventors digitized fluorescence intensity and performed various experiments. […]
smiles,measurement,setting,value
"C[N+]1=C(/C=C/C=C2/N(CCCCC(=O)NCCOCCOCCNCCOC3OC(CO)C(O)C(O)C3O)c3ccccc3C2(C)C)C(C)(C)c2ccccc21 [Cy3-Glc-α, [2-(N-Cy3-3,6-dioxaoctane-1,8-diaminoethyl)]-α-D-glucose]",incubation time to maximum uptake,A549 cells [1],≤ 35 min
same,uptake versus L-glucose in the medium,A549 cells [2]; 50 mM L-glucose,not influenced by the concentration of L-glucose
same,uptake versus concentration of D-glucose in the medium,"A549 cells [2]; RPMI 1640 lacking glucose, 10 mM or 50 mM D-glucose",decreased as the concentration of D-glucose in the medium increased
